From US20220401436A1, “METHODS FOR THE TREATMENT OF CANCERS THAT HAVE ACQUIRED RESISTANCE TO KINASE INHIBITORS” (INSERM (INSTITUTE NATIONAL DE LA SANTÉ ET DE LA RECHERCHE …, priority 2019, published 2022)

Columns and labels:
[1] = tested on: EGFR-mutated lung cell lines; test: Drug-tolerant cell (DTC) state in a panel of EGFR-mutated lung cell lines; format: cell-based
Excerpt: Actin polymerization is a tightly regulated process orchestrated by GTPases. Given our knowledge on the role of RHOB in resistance to targeted therapy, we assessed whether this GTPase could be responsible for the production of stress fibers in response to EGFR-TKI.

PC9 = test: GFP-transduced PC9 cells treated in vitro, response and relapse followed by fluorescence detection; format: cell-based; conditions: for emergence of resistant proliferative clones: inhibitor at 1 μM
HCC827 = test: GFP-transduced HCC827 cells treated in vitro, response and relapse followed by fluorescence detection; format: cell-based; conditions: for emergence of resistant proliferative clones: inhibitor at 1 μM
HCC4006 = test: GFP-transduced HCC4006 cells treated in vitro, response and relapse followed by fluorescence detection; format: cell-based; conditions: for emergence of resistant proliferative clones: inhibitor at 1 μM
[2] = tested on: H3122 (ALK-translocated NSCLC cell line); test: GFP-transduced H3122 cells treated in vitro, response and relapse followed by fluorescence detection; format: cell-based
Procedure: (§1) FIG. 1. […] (G-H). GFP-transduced H3122 (ALK-translocated NSCLC cell line) or A375 (BRAF-mutated melanoma cell line) were treated by Tipifarnib 0.1 μM in combination with Alectinib (2 μM) or Vemurafenib (5 μM), respectively, and response as well as relapse was followed by fluorescence detection.

[3] = tested on: A375 (BRAF-mutated melanoma cell line); test: GFP-transduced A375 cells treated in vitro, response and relapse followed by fluorescence detection; format: cell-based
Procedure: as §1

TKI-sensitive models = test: Relapse in several TKI-sensitive models followed by fluorescence detection (FIG. 1); format: cell-based; conditions: in combination with TKI; FIG. 1 title
Procedure: as §1

[4] = combination of Erlotinib and Tipifarnib; phase I clinical trial; cited from earlier work
HCC2935 = format: cell-based
H3255 = format: cell-based
[5] = Tipifarnib alone at 0.1 μM, data not shown
[6] = combination with erlotinib 1 μM, Tipifarnib at 0.1 μM
[7] = combination with erlotinib 1 μM, Tipifarnib at 1 μM
[8] = combination with erlotinib 1 μM
[9] = Tipifarnib alone at 1 μM vs 0.1 μM, data not shown
[10] = erlotinib alone, data not shown

C=CC(=O)Nc1cc(Nc2nccc(-c3cn(C)c4ccccc34)n2)c(OC)cc1N(C)CCN(C)C [osimertinib]
generation of DTC [1]: able to generate DTC

Cn1cncc1[C@@](N)(c1ccc(Cl)cc1)c1ccc2c(c1)c(-c1cccc(Cl)c1)cc(=O)n2C [Tipifarnib, (R)-6-[amino(4-chlorophenyl)(1-methyl-1H-imidazol-5-yl)methyl]-4-(3-chlorophenyl)-1-methyl-2(1H)-quinolinone]
effect on cells growth (PC9; [5]): little-to-non effect
elimination of drug tolerant cells (PC9; [6]): efficiently eliminated all drug tolerant cells
emergence of resistant clones (PC9; [6]): fully prevented the emergence of resistant clones
elimination of drug tolerant cells (PC9; [7]): efficiently eliminated all drug tolerant cells
emergence of resistant proliferative clones (PC9; [8]): fully prevented the emergence of resistant clones
effect on cells growth (HCC827; [5]): little-to-non effect
elimination of drug tolerant cells (HCC827; [6]): efficiently eliminated all drug tolerant cells
emergence of resistant clones (HCC827; [6]): fully prevented the emergence of resistant clones
elimination of drug tolerant cells (HCC827; [7]): efficiently eliminated all drug tolerant cells
emergence of resistant proliferative clones (HCC827; [8]): fully prevented the emergence of resistant clones
effect on cells growth (HCC4006; [5]): some cytostatic effect
cytostatic effect (HCC4006; [9]): exacerbated
elimination of drug tolerant cells (HCC4006; [6]): efficiently eliminated all drug tolerant cells
emergence of resistant clones (HCC4006; [6]): fully prevented the emergence of resistant clones
elimination of drug tolerant cells (HCC4006; [7]): efficiently eliminated all drug tolerant cells
emergence of resistant proliferative clones (HCC4006; [8]): fully prevented the emergence of resistant clones
effect on cells growth ([2]; Tipifarnib alone at 0.1 μM): some cytostatic effect
cytostatic effect [2, 9]: exacerbated
effect on cells growth ([3]; Tipifarnib alone at 0.1 μM): some cytostatic effect
cytostatic effect [3, 9]: exacerbated
cell death / remaining DTC after several days of treatment ([1]; combination of Tipifarnib and Erlotinib (1 μM), cell lines not named, data not shown): complete cell death
relapse (TKI-sensitive models): prevent relapse
tolerability in patients [4]: well tolerated

C#Cc1cccc(Nc2ncnc3cc(OCCOC)c(OCCOC)cc23)c1 [erlotinib]
proliferative resistant clones after erlotinib treatment (PC9; [10]): able to generate proliferative resistant clones
proliferative resistant clones after erlotinib treatment (HCC4006; [10]): able to generate proliferative resistant clones
resistant clones after erlotinib treatment (HCC2935): never observed resistant clones
resistant clones after erlotinib treatment (H3255): never observed resistant clones
generation of DTC [1]: able to generate DTC

COC(=O)[C@H](CC(C)C)NC(=O)c1ccc(NC[C@@H](N)CS)cc1-c1cccc2ccccc12 [GGTI 298]
emergence of resistant proliferative clones (PC9; [8]): didn't prevent the emergence of resistant proliferative clones
emergence of resistant proliferative clones (HCC827; [8]): didn't prevent the emergence of resistant proliferative clones
emergence of resistant proliferative clones (HCC4006; [8]): didn't prevent the emergence of resistant proliferative clones
relapse (TKI-sensitive models): not GGTi prevent relapse
